Data as given in ChEMBL document CHEMBL4020788, “Synthesis, SAR and molecular docking studies of benzo[d]thiazole-hydrazones as potential antibacterial and antifungal agents” (2017).
Values after ≈ are worked out from the molar mass of the structure shown. Active and inactive are the calls of the source. No cut-off for these calls is given here.

The molecules below were run on Fusarium verticillioides (assay: Antifungal activity against Fusarium moniliforme at 50 ug/ml after 48 hrs by agar well diffusion method). Settings: read-out: DIZ.
Assay type: functional

| SMILES | zone of inhibition at 50 µg/mL [mm] |
| --- | --- |
| Cc1cccc2nc(N/N=C/c3ccc(Cl)cc3Cl)sc12 | 21 |

The molecules below were run on Aspergillus niger (assay: Antifungal activity against Aspergillus niger at 50 ug/ml after 48 hrs by agar well diffusion method). Settings: read-out: DIZ.
Assay type: functional

| SMILES | zone of inhibition at 50 µg/mL [mm] |
| --- | --- |
| Cc1cccc2nc(N/N=C/c3ccc(Cl)cc3Cl)sc12 | 24 |

The molecules below were run on Staphylococcus aureus (assay: Antibacterial activity against Staphylococcus aureus at 50 ug/ml after 24 hrs by agar well diffusion method). Settings: read-out: DIZ.
Assay type: functional

| SMILES | zone of inhibition at 50 µg/mL [mm] |
| --- | --- |
| Cc1cccc2nc(N/N=C/c3ccc(Cl)cc3Cl)sc12 | 12 |

These molecules were tested on Fusarium verticillioides (assay: Antifungal activity against Fusarium moniliforme after 48 to 72 hrs by microdilution method). Settings: not given.
Assay type: functional

| SMILES | MIC [µg/mL] |
| --- | --- |
| Cc1cccc2nc(N/N=C/c3ccc(Cl)cc3Cl)sc12 | 28 (≈ 83.3 µM) |

These molecules were tested on Escherichia coli (assay: Antibacterial activity against Escherichia coli at 25 ug/ml after 24 hrs by agar well diffusion method). Settings: not given.
Assay type: functional

| SMILES | diameter of the inhibition zone (DIZ) |
| --- | --- |
| Cc1cccc2nc(N/N=C/c3ccc(Cl)cc3Cl)sc12 | inactive |

Each molecule was assayed on Staphylococcus aureus (assay: Antibacterial activity against methicillin resistant Staphylococcus aureus MRSA090 at 25 ug/ml after 24 hrs by agar well diffusion method). Settings: MRSA090, 24 h, read-out: DIZ.
Assay type: functional

| SMILES | zone of inhibition at 25 µg/mL [mm] |
| --- | --- |
| Cc1cccc2nc(N/N=C/c3ccc(Cl)cc3Cl)sc12 | 5 |

What follows are molecules tested on Escherichia coli (assay: Antibacterial activity against Escherichia coli at 50 ug/ml after 24 hrs by agar well diffusion method). Settings: not given.
Assay type: functional

| SMILES | diameter of the inhibition zone (DIZ) |
| --- | --- |
| Cc1cccc2nc(N/N=C/c3ccc(Cl)cc3Cl)sc12 | inactive |

Each molecule was assayed on Fusarium oxysporum (assay: Antifungal activity against Fusarium oxysporum at 25 ug/ml after 48 hrs by agar well diffusion method). Settings: read-out: DIZ.
Assay type: functional

| SMILES | zone of inhibition at 25 µg/mL [mm] |
| --- | --- |
| Cc1cccc2nc(N/N=C/c3ccc(Cl)cc3Cl)sc12 | 18 |

These molecules were tested on Aspergillus niger (assay: Antifungal activity against Aspergillus niger after 48 to 72 hrs by microdilution method). Settings: not given.
Assay type: functional

| SMILES | MIC [µg/mL] |
| --- | --- |
| Cc1cccc2nc(N/N=C/c3ccc(Cl)cc3Cl)sc12 | 25 (≈ 74.4 µM) |

What follows are molecules tested on Staphylococcus aureus (assay: Antibacterial activity against methicillin resistant Staphylococcus aureus MRSA090 at 75 ug/ml after 24 hrs by agar well diffusion method). Settings: MRSA090, 24 h, read-out: DIZ.
Assay type: functional

| SMILES | zone of inhibition at 75 µg/mL [mm] |
| --- | --- |
| Cc1cccc2nc(N/N=C/c3ccc(Cl)cc3Cl)sc12 | 13 |

What follows are molecules tested on Klebsiella pneumoniae (assay: Antibacterial activity against Klebsiella pneumoniae at 25 ug/ml after 24 hrs by agar well diffusion method). Settings: read-out: DIZ.
Assay type: functional

| SMILES | zone of inhibition at 25 µg/mL [mm] |
| --- | --- |
| Cc1cccc2nc(N/N=C/c3ccc(Cl)cc3Cl)sc12 | 10 |

The molecules below were run on Fusarium oxysporum (assay: Antifungal activity against Fusarium oxysporum at 75 ug/ml after 48 hrs by agar well diffusion method). Settings: read-out: DIZ.
Assay type: functional

| SMILES | zone of inhibition at 75 µg/mL [mm] |
| --- | --- |
| Cc1cccc2nc(N/N=C/c3ccc(Cl)cc3Cl)sc12 | 27 |

Each molecule was assayed on Fusarium verticillioides (assay: Antifungal activity against Fusarium moniliforme at 75 ug/ml after 48 hrs by agar well diffusion method). Settings: read-out: DIZ.
Assay type: functional

| SMILES | zone of inhibition at 75 µg/mL [mm] |
| --- | --- |
| Cc1cccc2nc(N/N=C/c3ccc(Cl)cc3Cl)sc12 | 28 |

These molecules were tested on Klebsiella pneumoniae (assay: Antibacterial activity against Klebsiella pneumoniae at 100 ug/ml after 24 hrs by agar well diffusion method). Settings: read-out: DIZ.
Assay type: functional

| SMILES | zone of inhibition at 100 µg/mL [mm] |
| --- | --- |
| Cc1cccc2nc(N/N=C/c3ccc(Cl)cc3Cl)sc12 | 22 |

These molecules were tested on Fusarium oxysporum (assay: Antifungal activity against Fusarium oxysporum at 50 ug/ml after 48 hrs by agar well diffusion method). Settings: read-out: DIZ.
Assay type: functional

| SMILES | zone of inhibition at 50 µg/mL [mm] |
| --- | --- |
| Cc1cccc2nc(N/N=C/c3ccc(Cl)cc3Cl)sc12 | 22 |

These molecules were tested on Aspergillus niger (assay: Antifungal activity against Aspergillus niger at 100 ug/ml after 48 hrs by agar well diffusion method). Settings: read-out: DIZ.
Assay type: functional

| SMILES | zone of inhibition at 100 µg/mL [mm] |
| --- | --- |
| Cc1cccc2nc(N/N=C/c3ccc(Cl)cc3Cl)sc12 | 33 |

These molecules were tested on Staphylococcus aureus (assay: Antibacterial activity against Staphylococcus aureus at 100 ug/ml after 24 hrs by agar well diffusion method). Settings: read-out: DIZ.
Assay type: functional

| SMILES | zone of inhibition at 100 µg/mL [mm] |
| --- | --- |
| Cc1cccc2nc(N/N=C/c3ccc(Cl)cc3Cl)sc12 | 20 |

The molecules below were run on Fusarium verticillioides (assay: Antifungal activity against Fusarium moniliforme at 100 ug/ml after 48 hrs by agar well diffusion method). Settings: read-out: DIZ.
Assay type: functional

| SMILES | zone of inhibition at 100 µg/mL [mm] |
| --- | --- |
| Cc1cccc2nc(N/N=C/c3ccc(Cl)cc3Cl)sc12 | 32 |

What follows are molecules tested on Escherichia coli (assay: Antibacterial activity against Escherichia coli at 100 ug/ml after 24 hrs by agar well diffusion method). Settings: not given.
Assay type: functional

| SMILES | diameter of the inhibition zone (DIZ) |
| --- | --- |
| Cc1cccc2nc(N/N=C/c3ccc(Cl)cc3Cl)sc12 | inactive |

The molecules below were run on Bacillus subtilis (assay: Antibacterial activity against Bacillus subtilis at 100 ug/ml after 24 hrs by agar well diffusion method). Settings: read-out: DIZ.
Assay type: functional

| SMILES | zone of inhibition at 100 µg/mL [mm] |
| --- | --- |
| Cc1cccc2nc(N/N=C/c3ccc(Cl)cc3Cl)sc12 | 16 |

Each molecule was assayed on Staphylococcus aureus (assay: Antibacterial activity against methicillin resistant Staphylococcus aureus MRSA090 at 50 ug/ml after 24 hrs by agar well diffusion method). Settings: MRSA090, 24 h, read-out: DIZ.
Assay type: functional

| SMILES | zone of inhibition at 50 µg/mL [mm] |
| --- | --- |
| Cc1cccc2nc(N/N=C/c3ccc(Cl)cc3Cl)sc12 | 8 |

Each molecule was assayed on Bacillus subtilis (assay: Antibacterial activity against Bacillus subtilis at 25 ug/ml after 24 hrs by agar well diffusion method). Settings: read-out: DIZ.
Assay type: functional

| SMILES | zone of inhibition at 25 µg/mL [mm] |
| --- | --- |
| Cc1cccc2nc(N/N=C/c3ccc(Cl)cc3Cl)sc12 | 4 |

Each molecule was assayed on Klebsiella pneumoniae (assay: Antibacterial activity against Klebsiella pneumoniae at 50 ug/ml after 24 hrs by agar well diffusion method). Settings: read-out: DIZ.
Assay type: functional

| SMILES | zone of inhibition at 50 µg/mL [mm] |
| --- | --- |
| Cc1cccc2nc(N/N=C/c3ccc(Cl)cc3Cl)sc12 | 15 |

The molecules below were run on Aspergillus niger (assay: Antifungal activity against Aspergillus niger at 25 ug/ml after 48 hrs by agar well diffusion method). Settings: read-out: DIZ.
Assay type: functional

| SMILES | zone of inhibition at 25 µg/mL [mm] |
| --- | --- |
| Cc1cccc2nc(N/N=C/c3ccc(Cl)cc3Cl)sc12 | 20 |

What follows are molecules tested on Staphylococcus aureus (assay: Antibacterial activity against methicillin resistant Staphylococcus aureus MRSA090 at 100 ug/ml after 24 hrs by agar well diffusion method). Settings: MRSA090, 24 h, read-out: DIZ.
Assay type: functional

| SMILES | zone of inhibition at 100 µg/mL [mm] |
| --- | --- |
| Cc1cccc2nc(N/N=C/c3ccc(Cl)cc3Cl)sc12 | 16 |

Each molecule was assayed on Escherichia coli (assay: Antibacterial activity against Escherichia coli at 75 ug/ml after 24 hrs by agar well diffusion method). Settings: not given.
Assay type: functional

| SMILES | diameter of the inhibition zone (DIZ) |
| --- | --- |
| Cc1cccc2nc(N/N=C/c3ccc(Cl)cc3Cl)sc12 | inactive |

What follows are molecules tested on Bacillus subtilis (assay: Antibacterial activity against Bacillus subtilis at 50 ug/ml after 24 hrs by agar well diffusion method). Settings: read-out: DIZ.
Assay type: functional

| SMILES | zone of inhibition at 50 µg/mL [mm] |
| --- | --- |
| Cc1cccc2nc(N/N=C/c3ccc(Cl)cc3Cl)sc12 | 9 |

Each molecule was assayed on Bacillus subtilis (assay: Antibacterial activity against Bacillus subtilis at 75 ug/ml after 24 hrs by agar well diffusion method). Settings: read-out: DIZ.
Assay type: functional

| SMILES | zone of inhibition at 75 µg/mL [mm] |
| --- | --- |
| Cc1cccc2nc(N/N=C/c3ccc(Cl)cc3Cl)sc12 | 13 |

Each molecule was assayed on Fusarium oxysporum (assay: Antifungal activity against Fusarium oxysporum at 100 ug/ml after 48 hrs by agar well diffusion method). Settings: read-out: DIZ.
Assay type: functional

| SMILES | zone of inhibition at 100 µg/mL [mm] |
| --- | --- |
| Cc1cccc2nc(N/N=C/c3ccc(Cl)cc3Cl)sc12 | 31 |

The molecules below were run on Fusarium oxysporum (assay: Antifungal activity against Fusarium oxysporum after 48 to 72 hrs by microdilution method). Settings: not given.
Assay type: functional

| SMILES | MIC [µg/mL] |
| --- | --- |
| Cc1cccc2nc(N/N=C/c3ccc(Cl)cc3Cl)sc12 | 26 (≈ 77.3 µM) |

These molecules were tested on Fusarium verticillioides (assay: Antifungal activity against Fusarium moniliforme at 25 ug/ml after 48 hrs by agar well diffusion method). Settings: read-out: DIZ.
Assay type: functional

| SMILES | zone of inhibition at 25 µg/mL [mm] |
| --- | --- |
| Cc1cccc2nc(N/N=C/c3ccc(Cl)cc3Cl)sc12 | 17 |

These molecules were tested on Aspergillus niger (assay: Antifungal activity against Aspergillus niger at 75 ug/ml after 48 hrs by agar well diffusion method). Settings: read-out: DIZ.
Assay type: functional

| SMILES | zone of inhibition at 75 µg/mL [mm] |
| --- | --- |
| Cc1cccc2nc(N/N=C/c3ccc(Cl)cc3Cl)sc12 | 29 |

What follows are molecules tested on Staphylococcus aureus (assay: Antibacterial activity against Staphylococcus aureus at 25 ug/ml after 24 hrs by agar well diffusion method). Settings: read-out: DIZ.
Assay type: functional

| SMILES | zone of inhibition at 25 µg/mL [mm] |
| --- | --- |
| Cc1cccc2nc(N/N=C/c3ccc(Cl)cc3Cl)sc12 | 4 |

The molecules below were run on Staphylococcus aureus (assay: Antibacterial activity against Staphylococcus aureus at 75 ug/ml after 24 hrs by agar well diffusion method). Settings: read-out: DIZ.
Assay type: functional

| SMILES | zone of inhibition at 75 µg/mL [mm] |
| --- | --- |
| Cc1cccc2nc(N/N=C/c3ccc(Cl)cc3Cl)sc12 | 16 |

These molecules were tested on Klebsiella pneumoniae (assay: Antibacterial activity against Klebsiella pneumoniae at 75 ug/ml after 24 hrs by agar well diffusion method). Settings: read-out: DIZ.
Assay type: functional

| SMILES | zone of inhibition at 75 µg/mL [mm] |
| --- | --- |
| Cc1cccc2nc(N/N=C/c3ccc(Cl)cc3Cl)sc12 | 19 |
